Laboratory results: patent publication US8012980B2, “Isoquinolinone derivatives” (AstraZeneca AB, priority 2008, dated 2011)

Each compound was assayed against T1, human active recombinant p38 (p38α) (Homo sapiens, UniProt Q16539) (assay: p38 Alpha Enzyme Assay (AlphaScreen, biotinylated-ATF2 substrate)). Conditions: means of replicate determinations; pre-incubated for 4 hours at 37° C.; SD of assay between 0.2 and 0.3 log units; read-out: p38α inhibition Mean pIC50 (converted).
T1 construct: 6His
T1 sequence (Q16539 whole entry): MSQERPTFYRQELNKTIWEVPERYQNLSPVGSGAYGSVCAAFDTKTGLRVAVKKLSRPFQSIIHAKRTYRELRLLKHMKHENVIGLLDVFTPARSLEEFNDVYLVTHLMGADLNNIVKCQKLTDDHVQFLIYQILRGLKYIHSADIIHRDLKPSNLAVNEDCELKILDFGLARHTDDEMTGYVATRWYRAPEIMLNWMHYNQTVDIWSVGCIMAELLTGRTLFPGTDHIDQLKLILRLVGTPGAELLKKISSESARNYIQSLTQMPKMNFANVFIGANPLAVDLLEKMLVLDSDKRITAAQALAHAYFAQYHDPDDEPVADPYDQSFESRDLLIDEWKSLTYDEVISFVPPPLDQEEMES
Assay type: biochemical
Protocol: The ability of the compounds of formula (I) to inhibit p38 kinase may be determined using the following biological assay:
Enzyme assays were performed in polypropylene 96 well plates. The following solutions were added to each well; 10 μL of compound dilutions in assay buffer (20 mM HEPES pH 7.4, containing 20 mM magnesium acetate, 0.005% (w/v) Tween-20, 10 mM DTT) containing 1% (v/v) DMSO or assay buffer containing 1% (v/v) DMSO alone, 70 μL of assay buffer containing 36 nM substrate (biotinylated-ATF2) and 10 μL of an appropriate dilution of human active recombinant p38-6H is tagged. Depending on batch of p38, an appropriate dilution was typically a 5 nM solution to give a final enzyme concentration of 0.5 nM. At this stage, background control wells also received 50 μL of AlphaScreen quench buffer (10 mM HEPES pH 7.4 containing 100 mM EDTA, 0.2% (w/v) bovine serum albumin). The plate was covered, pre-incubated for 4 hours at 37° C. and the enzyme reaction initiated by addition of 10 μL 1 mM ATP. After incubation for a further 45 minutes at 37° C., the reaction was stopped by addition of 50 μL quench reagent and 50 μL of the quenched reaction mixture transferred to an opaque, white 96-well plate. Detection reagent, 25 μL of 10 mM HEPES pH 7.4 containing 100 mM EDTA, 0.2% (w/v) bovine serum albumin, 0.3 nM anti phosphoATF2 antibody and 25 μg/mL of AlphaScreen protein A acceptor and donor beads' (PerkinElmer Inc.), was added to all wells in a darkened room, the plate sealed and left in the dark for at least 5 hours before AlphaScreen readings were taken using a Perkin Elmer EnVision reader. Total, uninhibited activity was determined from assays performed in each assay plate. The mean control in the absence of p38 activity was subtracted from each well. Data were expressed as percent inhibition of total activity using equation 1. Percent Inhibition=100*(1−Test/Control) Eq.1 Where . . . Test=p38 kinase activity in the presence of compound Control=p38 kinase activity in the absence of compound.
pIC50 is defined as the logarithm of the reciprocal of the concentration of compound required for 50% reduction in total p38 kinase activity.
The standard deviation of the p38 enzyme inhibition assay is between 0.2 and 0.3 log units.
`Cc1c(F)cc(C(=O)NC2CC2)cc1-c1ccc2c(=O)n(CC(C)(C)CO)cc(CN3CCC[C@@H](N)C3)c2c1` [Example 30, 3-[4-{[(3R)-3-Aminopiperidin-1-yl]methyl}-2-(3-hydroxy-2,2-dimethylpropyl)-1-oxo-1,2-dihydroisoquinolin-6-yl]-N-cyclopropyl-5-fluoro-4-methylbenzamide] was tested, and the IC50 was 0.126 nM. In the case of `Cc1c(F)cc(C(=O)NC2CC2)cc1-c1ccc2c(=O)n(CC(C)(C)CO)cc(CN3CCC(C)(N)CC3)c2c1` [Example 31, 3-{4-[(4-Amino-4-methylpiperidin-1-yl)methyl]-2-(3-hydroxy-2,2-dimethylpropyl)-1-oxo-1,2-dihydroisoquinolin-6-yl}-N-cyclopropyl-5-fluoro-4-methylbenzamide], the IC50 was 0.794 nM. `Cc1c(F)cc(C(=O)NC2CC2)cc1-c1ccc2c(=O)n(CC(C)(C)CO)cc(CN3CCN(CCCO)CC3)c2c1` [Example 32, N-Cyclopropyl-3-fluoro-5-[2-(3-hydroxy-2,2-dimethylpropyl)-4-{[4-(3-hydroxypropyl)piperazin-1-yl]methyl}-1-oxo-1,2-dihydroisoquinolin-6-yl]-4-methylbenzamide] was tested, and the IC50 was 0.794 nM. In the case of `Cc1c(F)cc(C(=O)NC2CC2)cc1-c1ccc2c(=O)n(CC3(CO)CC3)cc(CN3CCNC[C@H]3C)c2c1` [Example 33, N-Cyclopropyl-3-fluoro-5-(2-{[1-(hydroxymethyl)cyclopropyl]methyl}-4-{[(2R)-2-methylpiperazin-1-yl]methyl}-1-oxo-1,2-dihydroisoquinolin-6-yl)-4-methylbenzamide], the IC50 was 0.158 nM. `Cc1c(F)cc(C(=O)NC2CC2)cc1-c1ccc2c(=O)n(CC3(CO)CC3)cc(CN3CCN[C@@H](C)C3)c2c1` [Example 34, N-Cyclopropyl-3-fluoro-5-(2-{[1-(hydroxymethyl)cyclopropyl]methyl}-4-{[(3S)-3-methylpiperazin-1-yl]methyl}-1-oxo-1,2-dihydroisoquinolin-6-yl)-4-methylbenzamide] was tested, and the IC50 was 1 nM. `Cc1c(F)cc(C(=O)NC2CC2)cc1-c1ccc2c(=O)n(CC(CO)CO)cc(CN3CCN[C@@H](C)C3)c2c1` [Example 35, N-Cyclopropyl-3-fluoro-5-(2-[3-hydroxy-2-(hydroxymethyl)propyl]-4-{[(3S)-3-methylpiperazin-1-yl]methyl}-1-oxo-1,2-dihydroisoquinolin-6-yl)-4-methylbenzamide] was tested, and the IC50 was 5.01 nM. Compound `Cc1c(F)cc(C(=O)NC2CC2)cc1-c1ccc2c(=O)n(CC(C)(CO)CO)cc(CN3CCN[C@@H](C)C3)c2c1` [Example 36, N-Cyclopropyl-3-fluoro-5-(2-[3-hydroxy-2-(hydroxymethyl)-2-methylpropyl]-4-{[(3S)-3-methylpiperazin-1-yl]methyl}-1-oxo-1,2-dihydroisoquinolin-6-yl)-4-methylbenzamide] has an IC50 of 3.16 nM. For `Cc1c(F)cc(C(=O)NC2CC2)cc1-c1ccc2c(=O)n(CC(C)(C)CO)cc(C(C)N3CCC(C)(N)CC3)c2c1` (stereo not shown) [Example 41, 3-{4-[1-(4-Amino-4-methylpiperidin-1-yl)ethyl]-2-(3-hydroxy-2,2-dimethylpropyl)-1-oxo-1,2-dihydroisoquinolin-6-yl}-N-cyclopropyl-5-fluoro-4-methylbenzamide], the IC50 was 0.631 nM. Compound `Cc1c(F)cc(C(=O)NC2CC2)cc1-c1ccc2c(=O)n(CC(C)(C)CO)cc(C(C)N3CCC[C@@H](N)C3)c2c1` (stereo partly drawn) [Example 42, 3-[4-{1-[(3R)-3-Aminopiperidin-1-yl]ethyl}-2-(3-hydroxy-2,2-dimethylpropyl)-1-oxo-1,2-dihydroisoquinolin-6-yl]-N-cyclopropyl-5-fluoro-4-methylbenzamide] has an IC50 of 0.794 nM. Compound `Cc1c(F)cc(C(=O)NC2CC2)cc1-c1ccc2c(=O)n(CC(C)(C)CO)cc(C(C)N3CCCNCC3)c2c1` (stereo not shown) [Example 43, N-Cyclopropyl-3-{4-[1-(1,4-diazepan-1-yl)ethyl]-2-(3-hydroxy-2,2-dimethylpropyl)-1-oxo-1,2-dihydroisoquinolin-6-yl}-5-fluoro-4-methylbenzamide] has an IC50 of 0.501 nM. `Cc1c(F)cc(C(=O)NC2CC2)cc1-c1ccc2c(=O)n(CC(C)(C)CO)cc(C(C)N3CCN[C@@H](CO)C3)c2c1` (stereo partly drawn) [Example 44, N-Cyclopropyl-3-fluoro-5-[2-(3-hydroxy-2,2-dimethylpropyl)-4-{1-[(3R)-3-(hydroxymethyl)piperazin-1-yl]ethyl}-1-oxo-1,2-dihydroisoquinolin-6-yl]-4-methylbenzamide] showed an IC50 of 1.26 nM. For `Cc1c(F)cc(C(=O)NC2CC2)cc1-c1ccc2c(=O)n(CC(C)(C)CO)cc(C(C)N3CCN[C@@H](CO)C3)c2c1` (stereo partly drawn) [Example 45, N-Cyclopropyl-3-fluoro-5-[2-(3-hydroxy-2,2-dimethylpropyl)-4-{1-[(3R)-3-(hydroxymethyl)piperazin-1-yl]ethyl}-1-oxo-1,2-dihydroisoquinolin-6-yl]-4-methylbenzamide], the IC50 was 0.126 nM. For `Cc1c(F)cc(C(=O)NC2CC2)cc1-c1ccc2c(=O)n(CC(C)(C)CO)cc(S(=O)(=O)N3CCCNCC3)c2c1` [Example 46, N-Cyclopropyl-3-[4-(1,4-diazepan-1-ylsulfonyl)-2-(3-hydroxy-2,2-dimethylpropyl)-1-oxo-1,2-dihydroisoquinolin-6-yl]-5-fluoro-4-methylbenzamide], the IC50 was 0.158 nM. `Cc1c(F)cc(C(=O)NC2CC2)cc1-c1ccc2c(=O)n(CC3CC3)cc(S(=O)(=O)N3CCNCC3)c2c1` [Example 47, N-Cyclopropyl-3-[2-(cyclopropylmethyl)-1-oxo-4-(piperazin-1-ylsulfonyl)-1,2-dihydroisoquinolin-6-yl]-5-fluoro-4-methylbenzamide] was tested, and the IC50 was 0.251 nM. `Cc1c(F)cc(C(=O)NC2CC2)cc1-c1ccc2c(=O)n(CC3CC3)cc(S(=O)(=O)N3CCN(C)CC3)c2c1` [Example 48, N-Cyclopropyl-3-{2-(cyclopropylmethyl)-4-[(4-methylpiperazin-1-yl)sulfonyl]-1-oxo-1,2-dihydroisoquinolin-6-yl}-5-fluoro-4-methylbenzamide] gave an IC50 of 0.398 nM. Compound `Cc1c(F)cc(C(=O)NC2CC2)cc1-c1ccc2c(=O)n(CC(C)(C)CO)cc(S(=O)(=O)N3CCN[C@@H](CO)C3)c2c1` [Example 49, N-Cyclopropyl-3-fluoro-5-[2-(3-hydroxy-2,2-dimethylpropyl)-4-{[(3R)-3-(hydroxymethyl)piperazin-1-yl]sulfonyl}-1-oxo-1,2-dihydroisoquinolin-6-yl]-4-methylbenzamide] has an IC50 of 0.501 nM. Compound `Cc1c(F)cc(C(=O)NC2CC2)cc1-c1ccc2c(=O)n(CC3CC3)cc(S(=O)(=O)N3CCC(N)CC3)c2c1` [Example 50, 3-{4-[(4-Aminopiperidin-1-yl)sulfonyl]-2-(cyclopropylmethyl)-1-oxo-1,2-dihydroisoquinolin-6-yl}-N-cyclopropyl-5-fluoro-4-methylbenzamide] has an IC50 of 0.2 nM. With `Cc1c(F)cc(C(=O)NC2CC2)cc1-c1ccc2c(=O)n(CC3CC3)cc(S(=O)(=O)N3CCCNCC3)c2c1` [Example 51, N-cyclopropyl-3-[2-(cyclopropylmethyl)-4-(1,4-diazepan-1-ylsulfonyl)-1-oxo-1,2-dihydroisoquinolin-6-yl]-5-fluoro-4-methylbenzamide] the IC50 was 0.1 nM. `CNC1CCN(S(=O)(=O)c2cn(CC3CC3)c(=O)c3ccc(-c4cc(C(=O)NC5CC5)cc(F)c4C)cc23)CC1` [Example 52, N-cyclopropyl-3-[2-(cyclopropylmethyl)-4-{[4-(methylamino)piperidin-1-yl]sulfonyl}-1-oxo-1,2-dihydroisoquinolin-6-yl]-5-fluoro-4-methylbenzamide] gave an IC50 of 0.2 nM. For `Cc1c(F)cc(C(=O)NC2CC2)cc1-c1ccc2c(=O)n(CC(C)(C)CO)cc(S(=O)(=O)N3CC[C@H](N)C3)c2c1` [Example 53, 3-[4-{[(3S)-3-Aminopyrrolidin-1-yl]sulfonyl}-2-(3-hydroxy-2,2-dimethylpropyl)-1-oxo-1,2-dihydroisoquinolin-6-yl]-N-cyclopropyl-5-fluoro-4-methylbenzamide], the IC50 was 0.398 nM. Compound `Cc1c(F)cc(C(=O)NC2CC2)cc1-c1ccc2c(=O)n(CC(C)(C)CO)cc(S(=O)(=O)N3CC[C@@H](N)C3)c2c1` [Example 54, 3-[4-{[(3R)-3-Aminopyrrolidin-1-yl]sulfonyl}-2-(3-hydroxy-2,2-dimethylpropyl)-1-oxo-1,2-dihydroisoquinolin-6-yl]-N-cyclopropyl-5-fluoro-4-methylbenzamide] has an IC50 of 0.251 nM. `Cc1c(F)cc(C(=O)NC2CC2)cc1-c1ccc2c(=O)n(CC(C)(C)CO)cc(S(=O)(=O)N3CCC[C@@H]3CN)c2c1` [Example 55, 3-[4-{[(2R)-2-(aminomethyl)pyrrolidin-1-yl]sulfonyl}-2-(3-hydroxy-2,2-dimethylpropyl)-1-oxo-1,2-dihydroisoquinolin-6-yl]-N-cyclopropyl-5-fluoro-4-methylbenzamide] was tested, and the IC50 was 2.51 nM.
